Article PMC5435703 (Scientific Reports, 2017)
≈ marks a conversion by molar mass, not a printed value. Like-named read-outs stand apart in the source and are kept apart here. Marks after values point to notes of the source that are not given here.

Columns and labels:
MRSA BAA-1707 [1] = experiment: MIC assay with metal(II) cation co-treatment; assay type: cell-based, Staphylococcus aureus; details: Staphylococcus aureus
MRSA-1 = experiment: MIC broth microdilution assay; assay type: cell-based, Staphylococcus aureus; details: Staphylococcus aureus, MRSA; Table 1; read-out: MIC MRSA-1
VRE 700221 [2] = experiment: MIC broth microdilution assay; assay type: cell-based, Enterococcus faecium
MRSA BAA-1707 [3] = experiment: MIC broth microdilution assay; assay type: cell-based, Staphylococcus aureus; details: Staphylococcus aureus
MRSE 35984 [4] = experiment: MIC broth microdilution assay; assay type: cell-based, Staphylococcus epidermidis; details: Table 1; for MIC: Staphylococcus epidermidis, MRSE, read-out: MIC MRSE 35984
S. epi 12228 = experiment: MIC broth microdilution assay; assay type: cell-based, Staphylococcus epidermidis
MtB H37Ra = experiment: MIC assay for Mycobacterium tuberculosis; assay type: cell-based
[5] = LDH release assay for HeLa cytotoxicity; assay type: cell-based; details: human, HeLa cells; LDH release, 24 hours; tested at 25, 50 and 100 µM; read-out: HeLa Cytotox. IC50
four MRSA isolates = experiment: MIC assays, panel of four MRSA isolates; assay type: cell-based; details: Staphylococcus aureus, range over isolates, read-out: MIC against a panel of four MRSA isolates
[6] = Hemolysis assay with red blood cells; details: human, pH 7.2
MRSA BAA-44 = experiment: MIC broth microdilution assay; assay type: cell-based; details: Staphylococcus aureus; Table 1; read-out: MIC MRSA BAA-44
MRSA-2 = experiment: MIC broth microdilution assay; assay type: cell-based, Staphylococcus aureus; details: Staphylococcus aureus, MRSA; Table 1; read-out: MIC MRSA-2
MRSA BAA-1707 [7] = experiment: Calgary Biofilm Device (CBD) MBC/MBEC assay; assay type: cell-based, Staphylococcus aureus; details: for MBC: Staphylococcus aureus
MRSE 35984 [8] = experiment: Calgary Biofilm Device (CBD) MBC/MBEC assay; assay type: cell-based, Staphylococcus epidermidis; details: Staphylococcus epidermidis, MRSE; CBD, planktonic killing; read-out: MRSE 35984 MBC
VRE 700221 [9] = experiment: Calgary Biofilm Device (CBD) MBC/MBEC assay; assay type: cell-based, Enterococcus faecium; details: Enterococcus, VRE; CBD, planktonic killing; read-out: VRE 700221 MBC
[10] = Enterococcus, VRE, Table 1, read-out: MIC VRE 700221
[11] = Table 1, three independent experiments, read-out: MIC MRSA BAA-1707
[12] = Staphylococcus epidermidis, 12228, Table 1, read-out: MIC S. epi 12228
[13] = single plate shown as picture, read-out: MIC (µM), MIC Assay against MRSA BAA-1707

Oc1cccc2cccnc12 [8-OHQ, 8-hydroxyquinoline, reference compound]
MIC (MRSA BAA-1707 [1]): 9.38 µM
MIC (MRSA BAA-1707 [1]; read-out: MIC w/Cu2+): 4.69 µM
MIC (MRSA BAA-1707 [1]; read-out: MIC w/Fe2+): 12.5 µM
MIC (MRSA BAA-1707 [1]; read-out: MIC w/Mg2+): 6.25 µM
MIC (MRSA BAA-1707 [1]; read-out: MIC w/Zn2+): 12.5 µM

Cc1cc(Br)c(O)c2nc3cc(Cl)ccc3nc12 [HP 12]
MIC (MRSA-1): 75 µM (≈ 24.3 µg/mL)
MIC (VRE 700221 [2]; [10]): 12.5 µM (≈ 4.04 µg/mL)

Oc1c(Br)cc(Br)c2nc3ccc(Br)cc3nc12 [HP 3]
MIC (MRSA BAA-1707 [3]; [11]): 0.2 µM (≈ 0.0866 µg/mL)
MIC (MRSE 35984 [4]): 3.13 µM (≈ 1.35 µg/mL)
MIC (S. epi 12228; [12]): 3.13 µM (≈ 1.35 µg/mL)

C[C@H]1c2cccc(O)c2C(=O)C2=C(O)[C@]3(O)C(=O)C(C(N)=O)=C(O)[C@@H](N(C)C)[C@@H]3[C@@H](O)[C@@H]21 [Doxy., Doxycycline, reference compound]
MIC (MRSA BAA-1707 [1]; Table 2, MRSA BAA-1707, no metal(II) cation added, read-out: MIC): 0.78 µM
MIC (MRSA BAA-1707 [1]; copper(II) at 200 µM co-treatment, read-out: MIC w/Cu2+): 0.78 µM
MIC (MRSA BAA-1707 [1]; iron(II) at 200 µM co-treatment, read-out: MIC w/Fe2+): 3.13 µM
MIC (MRSA BAA-1707 [1]; magnesium(II) at 200 µM co-treatment, read-out: MIC w/Mg2+): 0.78 µM
MIC (MRSA BAA-1707 [1]; zinc(II) at 200 µM co-treatment, read-out: MIC w/Zn2+): 0.39 µM

CCc1cccc2nc3c(O)c(Br)cc(C)c3nc12 [HP 6]
MIC (MRSA-1): 0.78 µM (≈ 0.247 µg/mL)
MIC (MRSE 35984 [4]): 0.3 to 0.78 µM (≈ 0.0952 to 0.247 µg/mL)
MIC MRSE 35984 (MRSE 35984 [4]): 0.30^a µM
MIC (VRE 700221 [2]; [10]): 0.78 to 2.35 µM (≈ 0.247 to 0.745 µg/mL)
MIC (VRE 700221 [2]; Table 1, read-out: MIC VRE 700221): 0.78 µM (≈ 0.247 µg/mL)

Oc1c(Br)cc(Br)c2nc3ccc(Cl)cc3nc12 [HP 22]
MIC (MRSA BAA-1707 [3]; [11]): 0.15 µM (≈ 0.0583 µg/mL)
MIC (MRSA BAA-1707 [3]; Table 3, read-out: MRSA BAA-1707 MIC): 0.15 µM (≈ 0.0583 µg/mL)
MIC (MRSA BAA-1707 [3]; [13]): 0.1 µM (≈ 0.0388 µg/mL)
MIC (MRSA-1): 0.15 µM (≈ 0.0583 µg/mL)
MIC (S. epi 12228; [12]): 12.5 µM (≈ 4.86 µg/mL)
MIC (S. epi 12228; Staphylococcus epidermidis, 12228, single plate shown as picture, read-out: MIC (µM), MIC Assay Against S. epidermidis 12228): 12.5 µM (≈ 4.86 µg/mL)
MIC (MtB H37Ra): 2.4 µg/mL
MIC (MtB H37Ra; 168 h, seven days): 6.25 µM
IC50 at 24 h [5]: > 100 µM
MIC (four MRSA isolates): 0.05 to 0.59 µM (≈ 0.0194 to 0.229 µg/mL)
hemolysis at 1 h, 200 µM [6]: ≤ 1%

Cc1cc(Br)c(O)c2nc3cccc(Cl)c3nc12 [HP 11]
MIC (MRSA BAA-44): 3.13 µM (≈ 1.01 µg/mL)
MIC (MRSA-2): 3.13 µM (≈ 1.01 µg/mL)
MIC (MRSE 35984 [4]): 1.56 µM (≈ 0.505 µg/mL)
MIC (S. epi 12228; [12]): 1.56 µM (≈ 0.505 µg/mL)
MIC (VRE 700221 [2]; [10]): 3.13 µM (≈ 1.01 µg/mL)

Cc1cc(Br)c(O)c2nc3cccc(Br)c3nc12 [HP 13]
MIC (MRSA BAA-1707 [3]; [11]): 1.17 µM (≈ 0.431 µg/mL)
MIC (MRSA BAA-1707 [3]; [13]): 0.78 µM (≈ 0.287 µg/mL)
MIC (MRSA-2): 2.35 µM (≈ 0.865 µg/mL)

[H]/N=C(/N)N[C@H]1[C@H](O)[C@@H](O)[C@H](O[C@@H]2O[C@@H](C)[C@](O)(C=O)[C@H]2O[C@@H]2O[C@@H](CO)[C@H](O)[C@@H](O)[C@@H]2NC)[C@@H](N/C(N)=N\[H])[C@@H]1O [streptomycin, reference compound]
MIC (MtB H37Ra; 168 h, seven days): 1.32 µM

CCc1cc(Br)c2nc3c(C)cc(Br)c(O)c3nc2c1 [HP 10]
MIC (MRSA-1): 50 µM (≈ 19.8 µg/mL)
MIC (MRSE 35984 [4]): 37.5 µM (≈ 14.9 µg/mL)
MIC (VRE 700221 [2]; [10]): 50 µM (≈ 19.8 µg/mL)

CN[C@H](CC(C)C)C(=O)N[C@H]1C(=O)N[C@@H](CC(N)=O)C(=O)N[C@H]2C(=O)N[C@H]3C(=O)N[C@H](C(=O)N[C@H](C(=O)O)c4cc(O)cc(O)c4-c4cc3ccc4O)[C@H](O)c3ccc(c(Cl)c3)Oc3cc2cc(c3O[C@@H]2O[C@H](CO)[C@@H](O)[C@H](O)[C@H]2O[C@H]2C[C@](C)(N)[C@H](O)[C@H](C)O2)Oc2ccc(cc2Cl)[C@H]1O [vancomycin, reference compound]
MIC (S. epi 12228; Staphylococcus epidermidis, 12228, read-out: MIC S. epi 12228): 1.17 µM (≈ 1.7 µg/mL)
MIC (VRE 700221 [2]; Enterococcus, VRE, read-out: MIC VRE 700221): > 100 µM
MIC (VRE 700221 [2]; Enterococcus, VRE, read-out: VRE 700221 MIC): > 100 µM
MRSA-1707 Biofilm Eradication MBEC (MRSA BAA-1707 [7]; Figure 7A, single CBD plate): > 2000 µM
MBC (MRSA BAA-1707 [7]; Figure 7A, single CBD plate, read-out: MRSA-1707 Planktonic Eradication MBC): 3.9 µM (≈ 5.65 µg/mL)
MBC (MRSA BAA-1707 [7]; CBD, planktonic killing, 24 hours treatment, read-out: MRSA BAA-1707 MBC): 3.9 µM (≈ 5.65 µg/mL)
MBC (MRSE 35984 [8]): 3 µM (≈ 4.35 µg/mL)
MBC (VRE 700221 [9]): > 200 µM

CCCCc1cc(Br)c(O)c2nc3ccccc3nc12 [HP 2]
MIC (MRSA BAA-1707 [3]; [11]): 0.78 µM (≈ 0.258 µg/mL)
MIC (MRSA BAA-1707 [3]; [13]): 0.78 µM (≈ 0.258 µg/mL)
MIC (MRSA-1): 0.78 µM (≈ 0.258 µg/mL)
MIC (MRSA-2): 3.13 µM (≈ 1.04 µg/mL)
MIC (VRE 700221 [2]; [10]): 0.78 µM (≈ 0.258 µg/mL)
